From article PMC8139662 (Journal of Virology, 2021)

System: polarized human airway epithelial cultures (HAEC)

## COc1cccc2[nH]c(C(=O)N[C@@H](CC(C)C)C(=O)N[C@@H](C[C@@H]3CCNC3=O)C(=O)CO)cc12 [PF-00835231]
  effect on transepithelial resistance (TEER) over time: we did not observe this trend
